Patent US11752169B2, “Treatment of pain with polysulfated polysaccharides” (PARADIGM BIOPHARMACEUTICALS LTD., priority 2018, dated 2023)

Tests used:
COX2 mRNA = assay: real-time RT-PCR for COX2 mRNA in KOA osteocyte-like cultures; assay type: cell-based, human
Method: Cryopreserved cells from each donor (all at passage 0 or 1) were thawed and cultured for 10d in T75 cm^2 tissue culture flasks. Once confluent, cells were removed by collagenase/dispase digestion, washed by centrifugation, counted and adjusted to 5×10^5 cells/mL. Cells were then seeded into either 12-well tissue culture trays or into 8-well chamber slides, at 1×10^5 and 2×10^4 cells/well, respectively. After 24 h, media were replaced with osteogenic differentiation medium, consisting of αMEM, 5% v/v foetal calf serum (FCS), 1.8 mM potassium dihydrogen phosphate (KH2PO4), 100 μM Ascorbate-2-phosphate (As2P), 10 mM HEPES, 10^−8 M Dexamethasone and 0.2 mM L-Glutamine. During the differentiation process, samples were collected at days 3, 14 and 28 in Trizol reagent for total RNA preparation and gene expression analysis (see below). […]
(§1) Following three days of pre-treatment of osteocyte-like cultures with PPS and a further 48 h treatment period, total RNA was isolated for the purposes of analysing gene expression using real-time RT-PCR. While the quality of the RNA isolated from all cultures appeared to be high, as adjudged by Nanodrop micro-spectrophotometry showing the ratio of absorbance at 260 nm/280 nm generally being between 1.9 and 2.0, there was a consistent inability to generate complementary DNA (cDNA) from any samples exposed to 5 or 50 μg/mL PPS, except in one or two samples. […]

MMP13 mRNA = assay: real-time RT-PCR for MMP13 mRNA in KOA osteocyte-like cultures; assay type: cell-based, human; details: KOA donor osteocyte-like cultures, PPS 1 μg/mL + rhTNFα 1 ng/mL (FIG. 20)
Excerpt: FIG. 20. The effect of PPS treatment on basal and TNFα-induced MMP13 expression in human KOA osteocyte-like cultures. Real-time RT-PCR analysis of MMP13 mRNA relative to the expression of 18S rRNA. Data are means+SD of triplicate real-time RT-PCR reactions. A) KOA1-MMP13:18S mRNA expression; and B) KOA2-MMP13:185 mRNA expression.
Cryopreserved cells from each donor (all at passage 0 or 1) were thawed and cultured for 10d in T75 cm^2 tissue culture flasks. Once confluent, cells were removed by collagenase/dispase digestion, washed by centrifugation, counted and adjusted to 5×10^5 cells/mL. Cells were then seeded into either 12-well tissue culture trays or into 8-well chamber slides, at 1×10^5 and 2×10^4 cells/well, respectively. […]
as §1

Sodium Pentosan Polysulfate [PPS]
COX2 mRNA expression, PPS alone (COX2 mRNA; PPS 1 μg/mL (FIG. 18)): completely inhibited | COX2 mRNA expression, PPS in combination with rhTNFα (COX2 mRNA; PPS 1 μg/mL + rhTNFα 1 ng/mL (FIG. 18)): completely inhibited | rhTNFα-induced MMP13 mRNA expression (MMP13 mRNA): strongly inhibited
